According to patent US11976072B2, “Diacylglycerol kinase modulating compounds” (priority 2021, dated 2024):
Like-named read-outs stand apart in the source and are kept apart here.

What was measured:
[1] = molecular target: human DGKα (Homo sapiens, UniProt P23743); assay: DGKα Biochemical Activity Assay (ADP-Glo); settings: recombinant DGKα 1 nM, 100 μM ATP, 18:1 DAG/POPS/octylglucoside micelles, 1 hour at 25° C.; geometric mean; read-out: HTBS DGKa 1X ATP KM IC50;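 note: luminescent detection of ADP produced as DGKα phosphorylates DAG to phosphatidic acid, IC50 from four-parameter nonlinear curve fit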
[2] = system: Jurkat NFκB-luciferase cells; assay: Jurkat NFκB-Luciferase Assay; format: cell-based; settings: Homo sapiens
Protocol: The day after, the excess antibody was washed out five times with 100 ul/well of assay medium (RPMI supplemented with 10% fetal bovine serum) using a Biotek EL406 instrument and leaving 20 ul of residual volume in each well. Jurkat NFκB-luciferase cells (Promega #) were harvested and diluted to 1 million cells/ml in assay medium. […] Thirty microliters of medium containing the Jurkat NFκB-luciferase cells were then dispensed using a Biotek MicroFlo instrument in each well of the compound-containing plate. […] Forty microliters of One-Glo Ex (Promega) was then added to the assay mixture and luciferase activity was read on a Envision plate reader 7 minutes later.

[3] = Jurkat NFκB-luciferase cells activated with anti-CD3 antibody (OKT3), 2.5 hrs at 37° C., geometric mean, read-out: DGK NFKb Luciferase EC50
[4] = Jurkat, […], read-out: DGK NFKb Luciferase EC50 (nM)

Sequence of human DGKα (P23743 whole entry): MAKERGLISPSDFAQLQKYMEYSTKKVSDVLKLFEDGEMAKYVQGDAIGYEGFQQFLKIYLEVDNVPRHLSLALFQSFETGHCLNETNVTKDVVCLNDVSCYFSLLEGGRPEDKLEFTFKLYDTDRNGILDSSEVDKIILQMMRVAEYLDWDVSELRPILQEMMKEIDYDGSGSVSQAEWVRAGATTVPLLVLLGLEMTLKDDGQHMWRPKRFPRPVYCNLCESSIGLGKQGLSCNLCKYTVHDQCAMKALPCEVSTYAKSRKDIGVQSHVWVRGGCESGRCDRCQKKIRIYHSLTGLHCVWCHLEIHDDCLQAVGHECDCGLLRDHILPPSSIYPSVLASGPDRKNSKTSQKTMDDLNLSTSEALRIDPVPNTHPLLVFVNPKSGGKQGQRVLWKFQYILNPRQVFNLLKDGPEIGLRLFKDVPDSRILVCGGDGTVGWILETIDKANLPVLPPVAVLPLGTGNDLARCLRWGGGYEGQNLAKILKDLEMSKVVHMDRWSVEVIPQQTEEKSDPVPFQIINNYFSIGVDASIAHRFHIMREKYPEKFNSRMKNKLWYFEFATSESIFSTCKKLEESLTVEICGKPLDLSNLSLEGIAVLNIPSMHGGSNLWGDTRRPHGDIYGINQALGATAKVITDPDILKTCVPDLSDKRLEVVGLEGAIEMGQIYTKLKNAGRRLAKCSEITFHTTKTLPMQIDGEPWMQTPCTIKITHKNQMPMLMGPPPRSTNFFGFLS

Question: How did the IC50 [1] turn out when `Cc1nnc2nc(N3CCCc4c(C#CC5(O)CCC5)cccc43)c3cc(F)ccc3n12` [Example 28, 1-((1-(7-fluoro-1-methyl-[1,2,4]triazolo[4,3-a]quinazolin-5-yl)-1,2,3,4-tetrahydroquinolin-5-yl)ethynyl)cyclobutan-1-ol] was run?
Answer: 9.49 nM

Question: What about the EC50 [2, 3] of the same molecule?
Answer: 5.09 nM

Question: With `Cc1nnc2nc(N3CCCc4c(C#CC5(C)COC5)cccc43)c3cc(F)ccc3n12` [Example 29, 7-fluoro-1-methyl-5-(5-((3-methyloxetan-3-yl)ethynyl)-3,4-dihydroquinolin-1(2H)-yl)-[1,2,4]triazolo[4,3-a]quinazoline] as the molecule, how does the IC50 [1] read?
Answer: 3.31 nM

Question: And the EC50 [2, 3]?
Answer: 0.66 nM

Question: With `Cc1nnc2nc(N3CCCc4c(C#CC5CCC5)cccc43)c3cc(F)ccc3n12` [Example 30, 5-(5-(cyclobutylethynyl)-3,4-dihydroquinolin-1(2H)-yl)-7-fluoro-1-methyl-[1,2,4]triazolo[4,3-a]quinazoline] as the molecule, how does the IC50 [1] read?
Answer: 14.7 nM

Question: And the EC50 [2, 3]?
Answer: 0.163 nM

Question: Which IC50 [1] does the source give for `Cc1nnc2nc(N3CCCc4c(C#CC5(C(C)(F)F)CC5)cccc43)c3cc(F)ccc3n12` [Example 31, 5-(5-((1-(1,1-difluoroethyl)cyclopropyl)ethynyl)-3,4-dihydroquinolin-1(2H)-yl)-7-fluoro-1-methyl-[1,2,4]triazolo[4,3-a]quinazoline] here?
Answer: 50.9 nM

Question: What about the EC50 [2, 3] of the same molecule?
Answer: 1.43 nM

Question: For `Cc1nnc2nc(N3CCCc4c(C#CC5CC(F)(F)C5)cccc43)c3cc(F)ccc3n12` [Example 32, 5-(5-((3,3-difluorocyclobutyl)ethynyl)-3,4-dihydroquinolin-1(2H)-yl)-7-fluoro-1-methyl-[1,2,4]triazolo[4,3-a]quinazoline], which IC50 [1] is on record?
Answer: 11 nM

Question: What about the EC50 [2, 3] of the same molecule?
Answer: 0.461 nM

Question: Which results are given for `Cc1nnc2nc(N3CCCc4c(C#CC5(C)CC5)cccc43)c3c(Cl)c(F)ccc3n12` [Example 33, 6-chloro-7-fluoro-1-methyl-5-[5-[2-(1-methylcyclopropyl)ethynyl]-3,4-dihydro-2H-quinolin-1-yl]-[1,2,4]triazolo[4,3-a]quinazoline]?
Answer: IC50 [1]: 42.4 nM; EC50 [2, 3]: 1.59 nM

Question: With `Cc1nnc2nc(N3CCCc4c(C#CC(C)(C)C(F)F)cccc43)c3c(Cl)c(F)ccc3n12` [Example 34, 6-chloro-5-[5-(4,4-difluoro-3,3-dimethyl-but-1-ynyl)-3,4-dihydro-2H-quinolin-1-yl]-7-fluoro-1-methyl-[1,2,4]triazolo[4,3-a]quinazoline] as the molecule, how does the IC50 [1] read?
Answer: 30.4 nM

Question: What about the EC50 [2, 3] of the same molecule?
Answer: 0.907 nM

Question: With `Cc1nnc2nc(N3CCCc4c(C#CC5(C(F)F)CC5)cccc43)c3c(Cl)c(F)ccc3n12` [Example 35, 6-chloro-5-[5-[2-[1-(difluoromethyl)cyclopropyl]ethynyl]-3,4-dihydro-2H-quinolin-1-yl]-7-fluoro-1-methyl-[1,2,4]triazolo[4,3-a]quinazoline] as the molecule, how does the IC50 [1] read?
Answer: 5.44 nM

Question: And the EC50 [2, 3]?
Answer: 1.14 nM

Question: With `Cc1nnc2nc(N3CCCc4c(C#CC(C)(C)C#N)cccc43)c3c(Cl)c(F)ccc3n12` [Example 36, 4-[1-(6-chloro-7-fluoro-1-methyl-[1,2,4]triazolo[4,3-a]quinazolin-5-yl)-3,4-dihydro-2H-quinolin-5-yl]-2,2-dimethyl-but-3-ynenitrile] as the molecule, how does the IC50 [1] read?
Answer: 9.93 nM

Question: And the EC50 [2, 3]?
Answer: 1.85 nM

Question: What does the source list for `Cc1nnc2nc(N3CCCc4c(C#CC5(C(F)(F)F)CC5)cccc43)c3c(Cl)c(F)ccc3n12` [Example 37, 6-chloro-7-fluoro-1-methyl-5-[5-[2-[1-(trifluoromethyl)cyclopropyl]ethynyl]-3,4-dihydro-2H-quinolin-1-yl]-[1,2,4]triazolo[4,3-a]quinazoline]?
Answer: IC50 [1]: 64.8 nM; EC50 [2, 3]: 1.88 nM

Question: For `Fc1cc(Cl)c2c(c1)c(N1CCCc3c(C#CC4(C(F)(F)F)CC4)cccc31)nc1nncn12` [Example 38, 9-chloro-7-fluoro-5-[5-[2-[1-(trifluoromethyl)cyclopropyl]ethynyl]-3,4-dihydro-2H-quinolin-1-yl]-[1,2,4]triazolo[4,3-a]quinazoline], which IC50 [1] is on record?
Answer: 126 nM

Question: What about the EC50 [2, 3] of the same molecule?
Answer: 3.95 nM

Question: Which IC50 [1] does the source give for `Fc1ccc(Cl)c2c1c(N1CCOCc3c(C#CC4(C(F)F)CC4)cccc31)nc1nncn12` [Example 39, 1-(9-chloro-6-fluoro-[1,2,4]triazolo[4,3-a]quinazolin-5-yl)-6-[2-[1-(difluoromethyl)cyclopropyl]ethynyl]-3,5-dihydro-2H-4,1-benzoxazepine] here?
Answer: 8.31 nM

Question: And the EC50 [2, 3]?
Answer: 2.18 nM

Question: How did the IC50 [1] turn out when `CC(C)(O)C#Cc1cccc2c1COCCN2c1nc2nncn2c2c(Cl)ccc(F)c12` [Example 40, 4-[1-(9-chloro-6-fluoro-[1,2,4]triazolo[4,3-a]quinazolin-5-yl)-3,5-dihydro-2H-4,1-benzoxazepin-6-yl]-2-methyl-but-3-yn-2-ol] was run?
Answer: 12.6 nM

Question: What about the EC50 [2, 4] of the same molecule?
Answer: 17.1 nM

Question: With `CC(C)(C#Cc1cccc2c1COCCN2c1nc2nncn2c2c(Cl)ccc(F)c12)C(F)F` [Example 41, 1-(9-chloro-6-fluoro-[1,2,4]triazolo[4,3-a]quinazolin-5-yl)-6-(4,4-difluoro-3,3-dimethyl-but-1-ynyl)-3,5-dihydro-2H-4,1-benzoxazepine] as the molecule, how does the IC50 [1] read?
Answer: 11 nM

Question: And the EC50 [2, 3]?
Answer: 1.39 nM

Question: For `Cc1nnc2nc(N(CC(F)F)c3ccnc(C#CC(C)(C)C(F)F)c3F)c3c(F)cccc3n12` [Example 42, N-[2-(4,4-difluoro-3,3-dimethyl-but-1-ynyl)-3-fluoro-4-pyridyl]-N-(2,2-difluoroethyl)-6-fluoro-1-methyl-[1,2,4]triazolo[4,3-a]quinazolin-5-amine], which IC50 [1] is on record?
Answer: 6.93 nM

Question: What about the EC50 [2, 3] of the same molecule?
Answer: 2.32 nM

Question: Which IC50 [1] does the source give for `Cc1nnc2nc(N(CC(F)F)c3ccnc(C#CC(C)(C)C(F)(F)F)c3F)c3c(F)cccc3n12` [Example 43, N-(2,2-difluoroethyl)-6-fluoro-N-[3-fluoro-2-(4,4,4-trifluoro-3,3-dimethyl-but-1-ynyl)-4-pyridyl]-1-methyl-[1,2,4]triazolo[4,3-a]quinazolin-5-amine] here?
Answer: 9.97 nM

Question: And the EC50 [2, 3]?
Answer: 1.22 nM

Question: What does the source list for `Cc1nnc2nc(N(CC(F)F)c3ccnc(C#CC4(C(F)F)CC4)c3F)c3c(F)cccc3n12` [Example 44, N-(2,2-difluoroethyl)-N-[2-[2-[1-(difluoromethyl)cyclopropyl]ethynyl]-3-fluoro-4-pyridyl]-6-fluoro-1-methyl-[1,2,4]triazolo[4,3-a]quinazolin-5-amine]?
Answer: IC50 [1]: 3.81 nM; EC50 [2, 3]: 7.15 nM

Question: With `Cc1nnc2nc(N(CC(F)F)c3ccnc(C#CC(C)(C)O)c3F)c3c(F)cccc3n12` [Example 45, 4-[4-[2,2-difluoroethyl-(6-fluoro-1-methyl-[1,2,4]triazolo[4,3-a]quinazolin-5-yl)amino]-3-fluoro-2-pyridyl]-2-methyl-but-3-yn-2-ol] as the molecule, how does the IC50 [1] read?
Answer: 8.25 nM

Question: What about the EC50 [2, 4] of the same molecule?
Answer: 329 nM

Question: What does the source list for `CC(C)(C#Cc1cc(F)cc(N(CC(F)F)c2nc3nncn3c3c(Cl)cc(F)cc23)c1)C(F)F` [Example 46, 9-chloro-N-[3-(4,4-difluoro-3,3-dimethyl-but-1-ynyl)-5-fluoro-phenyl]-N-(2,2-difluoroethyl)-7-fluoro-[1,2,4]triazolo[4,3-a]quinazolin-5-amine]?
Answer: IC50 [1]: 15.6 nM; EC50 [2, 3]: 1.75 nM

Question: Which results are given for `Fc1cc(C#CC2(C(F)F)CC2)cc(N(CC(F)F)c2nc3nncn3c3c(Cl)cc(F)cc23)c1` [Example 47, 9-chloro-N-(2,2-difluoroethyl)-N-[3-[2-[1-(difluoromethyl)cyclopropyl]ethynyl]-5-fluoro-phenyl]-7-fluoro-[1,2,4]triazolo[4,3-a]quinazolin-5-amine]?
Answer: IC50 [1]: 18.8 nM; EC50 [2, 3]: 3.92 nM

Question: Which results are given for `Fc1cc(C#CC2(C(F)(F)F)CC2)cc(N(CC(F)F)c2nc3nncn3c3c(Cl)cc(F)cc23)c1` [Example 48, 9-chloro-N-(2,2-difluoroethyl)-7-fluoro-N-[3-fluoro-5-[2-[1-(trifluoromethyl)cyclopropyl]ethynyl]phenyl]-[1,2,4]triazolo[4,3-a]quinazolin-5-amine]?
Answer: IC50 [1]: 5.73 nM; EC50 [2, 3]: 3.02 nM

Question: For `CC1(C#Cc2cc(F)cc(N(CC(F)F)c3nc4nncn4c4c(Cl)cc(F)cc34)c2)CC1` [Example 49, 9-chloro-N-(2,2-difluoroethyl)-7-fluoro-N-[3-fluoro-5-[2-(1-methylcyclopropyl)ethynyl]phenyl]-[1,2,4]triazolo[4,3-a]quinazolin-5-amine], which IC50 [1] is on record?
Answer: 12.4 nM

Question: And the EC50 [2, 3]?
Answer: 1.36 nM

Question: How did the IC50 [1] turn out when `CC(C)(O)C#Cc1cc(F)cc(N(CC(F)F)c2nc3nncn3c3c(Cl)cc(F)cc23)c1` [Example 50, 4-[3-[(9-chloro-7-fluoro-[1,2,4]triazolo[4,3-a]quinazolin-5-yl)-(2,2-difluoroethyl)amino]-5-fluoro-phenyl]-2-methyl-but-3-yn-2-ol] was run?
Answer: 11.9 nM

Question: And the EC50 [2, 4]?
Answer: 16.8 nM

Question: `Cc1nnc2nc(N(CC(F)F)c3cccc(C#CC4(C(F)F)CC4)c3F)c3c(F)cccc3n12` [Example 51, N-(2,2-difluoroethyl)-N-[3-[2-[1-(difluoromethyl)cyclopropyl]ethynyl]-2-fluoro-phenyl]-6-fluoro-1-methyl-[1,2,4]triazolo[4,3-a]quinazolin-5-amine] was tested. Which IC50 [1] did it give?
Answer: 5.01 nM

Question: And the EC50 [2, 3]?
Answer: 1.92 nM

Question: Which results are given for `Cc1nnc2nc(N(CC(F)F)c3cccc(C#CC4(C)CC4)c3F)c3c(F)cccc3n12` [Example 52, N-(2,2-difluoroethyl)-6-fluoro-N-[2-fluoro-3-[2-(1-methylcyclopropyl)ethynyl]phenyl]-1-methyl-[1,2,4]triazolo[4,3-a]quinazolin-5-amine]?
Answer: IC50 [1]: 7.98 nM; EC50 [2, 3]: 0.583 nM

Question: What does the source list for `Cc1nnc2nc(N(CC(F)F)c3cccc(C#CC(C)(C)C(F)F)c3F)c3c(F)cccc3n12` [Example 53, N-[3-(4,4-difluoro-3,3-dimethyl-but-1-ynyl)-2-fluoro-phenyl]-N-(2,2-difluoroethyl)-6-fluoro-1-methyl-[1,2,4]triazolo[4,3-a]quinazolin-5-amine]?
Answer: IC50 [1]: 18.6 nM; EC50 [2, 3]: 0.792 nM
